Measured values: publication PMC8394356 (Biomedicines, 2021)
Where two headings read alike, the source gives them in different places.

Assays:
[1] = Oxygen radical absorbance capacity (ORAC), OxiSelect Assay Kit; settings: for ORAC activities, fold higher than those of Trolox: compound at 10 μM; for ORAC values: compound at a concentration of 10 μM
Description: The antioxidant index of free radical scavenging activities of the extracts (1.5 or 2.5 μg/mL) and purified compounds (10 μM) of TT-hull were determined by a commercial OxiSelect™ Assay Kit for oxygen radical absorbance capacity (ORAC) determination. The standard curve of ORAC was plotted using different concentrations of water-soluble vitamin E analog (the compound’s name was Trolox, 6-hydroxy-2,5,7,8-tetramethylchroman-2-carboxylic acid) at 2.5, 5, 10, 20, 40, and 60 μM. Therefore, the ORAC activities of TT-hull extracts or purified compounds were calculated equivalently to the Trolox effects and expressed as Trolox equivalents (μM).

[2] = test system: scopolamine-induced amnesiac mice; settings: 10 mg/kg, with or without nanoparticle-delivered formulation; cited from earlier work
[3] = target: T1, recombinant human AChE (Homo sapiens, UniProt P22303); experiment: biochemical; settings: for IC50: isolated compounds from TT-hull-50EE, recombinant human AChE
T1 construct: purchased R&D Systems Inc. 7574-CE
T1 sequence (P22303 32-614): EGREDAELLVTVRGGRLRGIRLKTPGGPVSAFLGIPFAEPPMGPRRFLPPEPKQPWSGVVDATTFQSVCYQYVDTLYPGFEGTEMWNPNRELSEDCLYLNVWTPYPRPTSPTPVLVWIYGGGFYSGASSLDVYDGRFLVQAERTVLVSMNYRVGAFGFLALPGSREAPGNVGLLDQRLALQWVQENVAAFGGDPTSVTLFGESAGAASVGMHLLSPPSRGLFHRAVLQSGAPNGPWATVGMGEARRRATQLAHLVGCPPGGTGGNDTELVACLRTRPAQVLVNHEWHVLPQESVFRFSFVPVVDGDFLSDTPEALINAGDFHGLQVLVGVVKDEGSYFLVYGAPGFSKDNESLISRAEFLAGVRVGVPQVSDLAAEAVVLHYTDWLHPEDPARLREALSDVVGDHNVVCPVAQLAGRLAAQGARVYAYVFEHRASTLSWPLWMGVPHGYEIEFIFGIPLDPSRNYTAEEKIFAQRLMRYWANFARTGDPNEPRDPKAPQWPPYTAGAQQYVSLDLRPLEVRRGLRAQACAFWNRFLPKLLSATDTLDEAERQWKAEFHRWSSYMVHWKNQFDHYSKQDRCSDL
Description: The acetylthiocholine iodide and DTNB were used for in vitro AChE inhibitory activity assays following the previous report. […] An equal volume of DMSO instead of the sample solution was used as a blank and expressed as 100% AChE activity. The absorbance changes were recorded at 405 nm for 10 min. The AChE inhibition (%) was calculated as follows: [(A405blank−A405sample)/(A405blank)] × 100%.

[4] = target: T2, Aβ (1-42) peptide (Homo sapiens, UniProt P05067); experiment: Inhibition of Aβ (1-42) aggregation in vitro (ThT fluorescent assay); format: biochemical; settings: 37 °C, 24 h; for inhibition at 10 µM: 1:1 ratio of Aβ to compound, 10 μM:10 μM, read-out: inhibition of Aβ aggregation
T2 construct: the synthetic Aβ (1-42) peptide was weighed in an Eppendorf tube; purchased Kelowna International Scientific Inc; host or cells: synthetic peptide
T2 sequence (P05067 672-713): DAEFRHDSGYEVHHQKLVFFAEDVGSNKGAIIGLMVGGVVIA
Description: The ThT fluorescent assay was used to monitor the isolated compounds from the TT-hull on inhibition of Aβ (1-42) peptide aggregations. For the preparation of the Aβ stock film, the synthetic Aβ (1-42) peptide was weighed in an Eppendorf tube and dissolved in HFIP to prepare a 1 mM stock solution; then, HFIP solvent was evaporated to form the Aβ (1-42) film. The stock film was dissolved in 100 μL of 60 mM NaOH, and further diluted with 50 mM phosphate buffer (pH7.4, containing 150 mM sodium chloride, 1 mM EDTA, and 0.02% sodium azide). The 125 μL working solution contained 10 μM Aβ (1-42) peptide, purified compounds (10, 20, and 40 μM in DMSO), and 10 μM ThT solution, which was gently shaken at 37 °C for 24 h. The mixture without the sample additions was the control. The fluorescence ratios of Ex440nm/Em486nm were recorded at a time of 0 h and 24 h, and changes in fluorescence over a 24 h period were expressed as ΔE. The inhibition of Aβ aggregation (%) was calculated as [(ΔEcontrol−ΔEsample)/(ΔEcontrol)] × 100%.

[5] = 1:2 ratio of Aβ to compound, 10 μM to 20 μM
[6] = 1:4 ratio of Aβ to compound, 10 μM to 40 μM
[7] = read-out: IC50 of AChE inhibitory activity

| SMILES | ORAC activities, fold higher than those of Trolox [1] | ORAC values [1] [μM Trolox equivalents] | learning behavior functions in the probe test of the Morris water maze [2] | IC50 ([3]; IC50 of AChE inhibitory activity) [µM] | inhibition at 10 µM [4] [%] | inhibition of Aβ aggregation [4, 5] [%] | inhibition of Aβ aggregation [4, 6] [%] | IC50 [3, 7] [µM] | inhibition at 800 µM ([3]; at concentration of 800 μM) [%] |
| --- | --- | --- | --- | --- | --- | --- | --- | --- | --- |
| O=C(O)c1cc(O)c(O)c(O)c1 [TT-6, gallic acid] | 2.4 fold | 23.7 | showed improved learning behavior functions | 246 | 37.2 | 77.73 | 88.19 | – | – |
| O=C(O[C@@H]1O[C@H](CO)[C@@H](O)[C@H](OC(=O)c2cc(O)c(O)c(O)c2)[C@H]1OC(=O)c1cc(O)c(O)c(O)c1)c1cc(O)c(O)c(O)c1 [TT-3, 1,2,3-tri-O-galloyl-β-D-glucopyranoside] | close to two-fold higher | 15.1 | – | – | 42.7 | 92.44 | – | 371 | – |
| O=C(OC[C@H]1O[C@@H](OC(=O)c2cc(O)c(O)c(O)c2)[C@H](OC(=O)c2cc(O)c(O)c(O)c2)[C@@H](O)[C@@H]1O)c1cc(O)c(O)c(O)c1 [TT-4, 1,2,6-tri-O-galloyl-β-D-glucopyranoside] | close to two-fold higher | 18.1 | – | – | 54.6 | 86.82 | 100 | > 800 | < 50 |
